The values below come from patent US20210322442A1, “LONG-TERM RE-ABSORBABLE SU[…] WITH CONTROLED PRE-CONCENTRATED PHARMACOLOGICALLY ACTIVE POLYMER SUBSTANCE RELEASE FOR TREATING ENDOMETRIOSIS” (priority 2020, published 2021).

The test system of data set [1] is endometriosis. The conditions noted are these: cited from earlier work.
The subject of data set [2] is endometriosis. In words: clinical follow-up of about 1,000 patients treated with gestrinone implants. Type of data set: in vivo. The method, then:
Research was conducted to assess the effectiveness of using the gestrinone implants described here for the treatment of endometriosis. About 1,000 patients with different degrees of the disease were followed up in clinical practice and the dose used was 1 to 3 implants. […] In these patients, treatment can be used only.

For the compound `C#C[C@]1(O)CC[C@H]2[C@@H]3CCC4=CC(=O)CCC4=C3C=C[C@@]21CC` [gestrinone], the “tolerability, oral dose” value in the data set with endometriosis [1] is on record as “up to 5 mg three times a week”. Further, the “carrier protein SHBG in the patient” value in the data set on endometriosis [2] (mechanism of action, stated with an increase in free circulating testosterone) was “reduction in the carrier protein SHBG”. Further, the “quality of life of patients” value in the data set on endometriosis [2] (observed in practice: mood, libido, reasoning and decision making capacity, lean mass) is “improves the quality of life of patients as a whole”. Further, the free circulating testosterone entry in the data set on endometriosis [2] (result of SHBG reduction) was “increase in free circulating testosterone”.
